Results taken from ChEMBL document CHEMBL5058564, “EUbOPEN Chemogenomics Library 2 (Incucyte)” (2022).

Experiments:
Assay type in all cases: toxicity, cell-based
HEK-293T = assay: Incucyte cell viability with HEK293T; details: human, 10 µM, compound concentration 10 uM
Fibroblast = assay: Incucyte cell viability with human fibroblast; details: 10 µM, compound concentration 10 uM
U2OS = assay: Incucyte cell viability with U2OS; details: human, 10 µM, compound concentration 10 uM
[1] = 0 h, replicate number 1, timepoint 0 hours
[2] = 0 h, replicate number 2, timepoint 0 hours
[3] = 6 h, replicate number 1, timepoint 6 hours
[4] = 6 h, replicate number 2, timepoint 6 hours
[5] = 12 h, replicate number 1, timepoint 12 hours
[6] = 12 h, replicate number 2, timepoint 12 hours
[7] = 18 h, replicate number 1, timepoint 18 hours
[8] = 18 h, replicate number 2, timepoint 18 hours
[9] = 24 h, replicate number 2, timepoint 24 hours
[10] = 24 h, replicate number 1, timepoint 24 hours
Note: unitless GR value; below 1 slowed growth and below 0 cell loss.

Row | Compound | Growth Rate (HEK-293T; [1]) | Growth Rate (HEK-293T; [2]) | Growth Rate (HEK-293T; [3]) | Growth Rate (HEK-293T; [5]) | Growth Rate (HEK-293T; [7]) | Growth Rate (HEK-293T; [8]) | Growth Rate (HEK-293T; [9]) | Growth Rate (Fibroblast; [1]) | Growth Rate (Fibroblast; [2]) | Growth Rate (U2OS; [3]) | Growth Rate (U2OS; [4]) | Growth Rate (U2OS; [5]) | Growth Rate (U2OS; [7]) | Growth Rate (U2OS; [8]) | Growth Rate (HEK-293T; [10]) | Growth Rate (Fibroblast; [5]) | Growth Rate (U2OS; [2]) | Growth Rate (Fibroblast; [8]) | Growth Rate (Fibroblast; [7]) | Growth Rate (Fibroblast; [10]) | also measured
1 | Br.Oc1cc2c(cc1O)C(c1ccccc1)CNCC2 (stereo not given) | 0.99 | 0.61 | 0.78 | 0.62 | 0.92 | 0.37 | 0.67 | 0.09 | -0.21 | 0.49 | 1 | 0.47 | 0.55 | 0.99 | – | – | – | – | – | – | Growth Rate (HEK-293T; [4]): -0.1; Growth Rate (HEK-293T; [6]): 0.43; Growth Rate (U2OS; [10]): 0.98
2 | CC(C)C[C@@H](NC(=O)[C@H](Cc1ccccc1)NC(=O)CNC(=O)[C@@H](C)NC(=O)[C@@H](N)Cc1ccc(O)cc1)C(=O)O [DADLE] | 0.71 | 0.5 | 0.4 | 0.61 | 0.72 | 1 | 0.91 | 0.72 | -0.04 | – | 0.82 | – | – | 0.98 | 0.8 | 0.89 | 0.25 | – | – | – | Growth Rate (U2OS; [6]): 0.93; Growth Rate (U2OS; [9]): 0.99
3 | NCCc1c[nH]c2ccc(C(N)=O)cc12.O=C(O)/C=C\C(=O)O | 0.4 | -0.18 | 0.61 | 0.96 | 0.9 | – | – | 0.89 | -0.08 | 0.87 | – | – | 0.89 | – | 0.9 | – | 0.34 | 0.95 | – | – | Growth Rate (U2OS; [1]): -0.1; Growth Rate (U2OS; [10]): 0.83
4 | CC[C@H]1CN2CCc3cc(OC)c(OC)cc3[C@@H]2C[C@@H]1C[C@H]1NCCc2cc(OC)c(OC)cc21 [EMETINE] | – | 0.89 | -0.64 | -0.71 | -0.56 | -0.65 | -0.51 | – | 0.68 | 0.25 | 0.89 | 0.43 | 0.21 | 0.25 | -0.45 | -0.71 | -1 | -0.61 | -0.63 | -0.47 | Growth Rate (HEK-293T; [4]): -0.77; Growth Rate (HEK-293T; [6]): -0.68; Growth Rate (Fibroblast; [3]): -0.4; Growth Rate (Fibroblast; [4]): -0.75; Growth Rate (Fibroblast; [6]): -0.61; Growth Rate (Fibroblast; [9]): -0.61; Growth Rate (U2OS; [6]): 0.49; Growth Rate (U2OS; [10]): 0; Growth Rate (U2OS; [9]): 0.17
5 | CCOC(=O)c1c(/C(C#N)=C\N)c2ccc(Cl)c(Cl)c2n1C | 0.5 | 0.59 | 0.56 | – | 0.9 | 0.7 | 0.93 | 0.69 | – | 0.29 | – | 0.64 | 0.5 | – | 0.99 | 0.64 | – | 0.72 | 0.47 | 0.29 | Growth Rate (HEK-293T; [4]): 0.47; Growth Rate (HEK-293T; [6]): 0.77; Growth Rate (Fibroblast; [6]): 0.53; Growth Rate (Fibroblast; [9]): 0.73; Growth Rate (U2OS; [1]): -0.21; Growth Rate (U2OS; [10]): 0.73
6 | O=C(O)Cc1ccccc1Nc1c(Cl)cccc1Cl [DICLOFENAC] | – | 0.45 | 0.97 | – | – | – | – | 0.78 | 0.28 | – | 0.98 | – | – | – | – | – | -1 | – | – | – | Growth Rate (Fibroblast; [3]): 0.86
7 | COc1cc2c(Oc3ccc(NC(=O)C4(C(=O)Nc5ccc(F)cc5)CC4)cc3F)ccnc2cc1OCCCN1CCOCC1 [FORETINIB] | – | – | -0.97 | -0.79 | -0.65 | -0.82 | -0.7 | – | – | 0.16 | -0.08 | -0.1 | -0.03 | 0.01 | -0.54 | -0.98 | – | -0.9 | -0.93 | -0.88 | Growth Rate (HEK-293T; [4]): -0.98; Growth Rate (HEK-293T; [6]): -0.89; Growth Rate (Fibroblast; [3]): -0.99; Growth Rate (Fibroblast; [4]): -1; Growth Rate (Fibroblast; [6]): -0.95; Growth Rate (Fibroblast; [9]): -0.91; Growth Rate (U2OS; [6]): -0.03; Growth Rate (U2OS; [10]): 0
8 | Cc1c(CC(=O)O)c2cccnc2n1Cc1ccc(S(C)(=O)=O)cc1C(F)(F)F [FEVIPIPRANT] | – | 0.79 | – | – | – | – | – | 0.42 | 0.97 | – | 0.82 | – | – | 0.93 | – | – | -1 | – | – | – | Growth Rate (U2OS; [1]): -0.75; Growth Rate (U2OS; [9]): 0.88
9 | CCCCCCCCc1ccc(CC[C@](N)(CO)COP(=O)(O)O)cc1 [FTY720-P] | – | 0.4 | -0.47 | -0.14 | 0.01 | 0.48 | 0.37 | – | – | 0.87 | 0.43 | 0.79 | – | 1 | 0.01 | 0.21 | -0.7 | 0.85 | 0.14 | 0.09 | Growth Rate (HEK-293T; [4]): 0.66; Growth Rate (HEK-293T; [6]): 0.46; Growth Rate (Fibroblast; [3]): 0.71; Growth Rate (Fibroblast; [9]): 0.65; Growth Rate (U2OS; [1]): 0.2
10 | CN1CCC(C(=O)c2cccc(NC(=O)c3c(F)cc(F)cc3F)n2)CC1 | – | -1 | 0.24 | 0.74 | 0.81 | – | – | – | 0.32 | 0.94 | – | – | – | – | 0.93 | 0.6 | 0.68 | 0.96 | 0.86 | 0.59 | Growth Rate (Fibroblast; [4]): 0.9; Growth Rate (Fibroblast; [9]): 0.78
11 | CCCN(CCC)CCc1cccc2c1CC(=O)N2.Cl [ROPINIROLE HYDROCHLORIDE] | 0.6 | 0.1 | 0.94 | – | – | – | – | 0.73 | -0.1 | 0.57 | – | 0.77 | 0.76 | – | – | 0.31 | – | – | 0.67 | 0.64 | Growth Rate (U2OS; [1]): 0.4
